Reference: patent US12435061B2 (priority 2020, dated 2025)
Values after ≈ are worked out from the molar mass of the structure shown.

Assays:
[1] = Aqueous solubility assay in Normal Ringer Solution; conditions: Normal Ringer Solution; for Solubility Ringer (nM): room temperature; for solubility at 40 min: saline or isotonic, kinetic from dmso stock
Description: Following vortex and incubation for a sufficient time (e.g. 40 minutes at room temperature), solutions were filtered, quenched with acetonitrile, and analyzed by Liquid Chromotography. Solubility Limits were determined by comparison to a standard curve.

[2] = molecular target: T1, hTRPV3 (Homo sapiens (Human), UniProt Q8NET8); assay: hTRPV3 HAMA IC50 assay (Hamamatsu FDSS6000 calcium flux, TRex-293 cells)
T1 sequence (Q8NET8 whole entry): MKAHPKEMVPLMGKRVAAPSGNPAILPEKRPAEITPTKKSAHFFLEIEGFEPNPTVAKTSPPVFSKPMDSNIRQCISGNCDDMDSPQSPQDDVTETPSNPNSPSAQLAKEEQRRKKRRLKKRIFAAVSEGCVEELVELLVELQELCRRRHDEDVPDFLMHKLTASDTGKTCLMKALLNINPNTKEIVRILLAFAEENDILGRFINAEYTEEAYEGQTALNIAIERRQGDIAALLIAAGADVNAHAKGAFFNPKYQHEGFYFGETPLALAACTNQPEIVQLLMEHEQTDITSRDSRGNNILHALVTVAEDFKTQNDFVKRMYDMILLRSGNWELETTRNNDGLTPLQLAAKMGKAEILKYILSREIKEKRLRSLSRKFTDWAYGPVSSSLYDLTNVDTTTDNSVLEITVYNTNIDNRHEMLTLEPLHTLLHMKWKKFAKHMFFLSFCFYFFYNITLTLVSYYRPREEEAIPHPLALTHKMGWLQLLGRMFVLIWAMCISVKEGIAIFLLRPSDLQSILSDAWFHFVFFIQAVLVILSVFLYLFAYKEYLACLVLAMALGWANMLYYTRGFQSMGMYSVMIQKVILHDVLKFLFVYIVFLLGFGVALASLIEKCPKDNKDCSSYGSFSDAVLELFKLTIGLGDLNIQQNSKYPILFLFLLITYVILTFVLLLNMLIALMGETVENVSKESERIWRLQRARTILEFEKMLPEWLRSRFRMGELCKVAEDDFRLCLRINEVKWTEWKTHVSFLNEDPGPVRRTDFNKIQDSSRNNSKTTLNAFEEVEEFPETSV
Description: IC50s were calculated using CBIS from ChemInnovation (San Diego).

[3] = molecular target: T1, hTRPV3; assay: Whole-cell patch clamp, hTRPV3 Phase 1 / Phase 2 currents; format: cell-based
Procedure, shortened: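 Currents are activated by 20 μM 2-APB or by perfusate at 28 °C or warmer, in Ringer's solution, and quantified at ±80 mV.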

[4] = Phase 1 current, inward, whole-cell patch clamp, read-out: hTRPV3 Patch P1 Inwd
[5] = Phase 1 current, read-out: hTRPV3 (nM) (Phase 1)
[6] = Phase 2 current, inward, whole-cell patch clamp, read-out: hTRPV3 Patch P2 Inwd
[7] = Phase 2 current, read-out: hTRPV3 (nM) (Phase 2)
[8] = hTRPV3 HAMA IC50 (nM) (5 min), 5 min
[9] = hTRPV3 HAMA IC50 (nM) (30 min), 30 min

Structure (SMILES) | Solubility Ringer (nM) [1] | hTRPV3 HAMA IC50 (nM) (5 min) ([2]; 5 min) | IC50 [3, 4] | IC50 [3, 5] | IC50 [3, 6] | IC50 [3, 7] | hTRPV3 (nM) (Phase 1) [3] | solubility at 40 min [1] | hTRPV3 HAMA IC50 (nM) (30 min) ([2]; 30 min) | IC50 [2, 8] | IC50 [2, 9] | IC50 ([3]; hTRPV3 Patch P1 Inwd (nM)) | IC50 ([3]; read-out: hTRPV3 (nM) (Phase 1))
N#Cc1cc(C(F)(F)F)ccc1N1CC[C@H](Oc2ccc(C(F)(F)F)cn2)C1 [Compound 1-57] | BLQ | no fit (5 min) | 100 to 1000 nM | 706 nM | 100 to 1000 nM | 219 nM | – | – | – | – | – | – | –
NC(=O)c1cc(-c2ccccc2Cl)ccc1N1CC[C@H](Oc2ccc(C(F)(F)F)cn2)C1 [Compound 1-64, (S)-2′-chloro-4-(3-(5-(trifluoromethyl)pyridin-2-yloxy)pyrrolidin-1-yl)biphenyl-3-carboxamide] | BLQ | no fit (5 min) | 100 to 1000 nM | 145 nM | 100 to 1000 nM | 160 nM | – | – | – | – | – | – | –
O=[N+]([O-])c1cc(-c2ccccc2)ccc1N1CC[C@H](Oc2ccc(C(F)(F)F)cn2)C1 [Compound 1-66, (S)-2-(1-(3-nitrobiphenyl-4-yl)pyrrolidin-3-yloxy)-5-(trifluoromethyl)pyridine] | BLQ | no fit (5 min) | – | – | – | – | Incomplete Block (Phase 1) | – | – | – | – | – | –
NC(=O)c1cc(-c2ccccc2)ccc1N1CC[C@H](Oc2ccc3cc(Cl)ccc3n2)C1 [Compound 1-67, (S)-4-(3-(6-chloroquinolin-2-yloxy)pyrrolidin-1-yl)biphenyl-3-carboxamide] | BLQ | no fit (5 min) | > 1000 nM | 1270 nM | 100 to 1000 nM | 585 nM | – | – | – | – | – | – | –
Cc1ccccc1-c1ccc(N2CC[C@H](Oc3ccc(C(F)(F)F)cn3)C2)c(CO)c1 [Compound 1-128, (S)-(2′-methyl-4-(3-(5-(trifluoromethyl)pyridin-2-yloxy)pyrrolidin-1-yl)biphenyl-3-yl)methanol] | BLQ | no fit (5 min) | 100 to 1000 nM | 114 nM | – | – | – | – | – | – | – | – | –
OCc1cc(-c2ccccc2OC(F)(F)F)ccc1N1CC[C@H](Oc2ccc(C(F)(F)F)cn2)C1 [Compound 1-161, (S)-(2′-(trifluoromethoxy)-4-(3-(5-(trifluoromethyl)pyridin-2-yloxy)pyrrolidin-1-yl)biphenyl-3-yl)methanol] | BLQ | no fit (5 min) | 10 to 100 nM | 93.4 nM | – | – | – | – | – | – | – | – | –
OCCCc1cc(-c2ccccc2Cl)ccc1N1CC[C@H](Oc2ccc(C(F)(F)F)cn2)C1 [Compound 1-164] | BLQ | no fit (5 min) | 100 to 1000 nM | 190 nM | – | – | – | – | – | – | – | – | –
Cc1ccccc1-c1ccc(N2CC[C@H](Oc3ncccc3C)C2)c(CO)n1 [Compound 1-179, (S)-(3-(3-(3-methylpyridin-2-yloxy)pyrrolidin-1-yl)-6-o-tolylpyridin-2-yl)methanol] | – | no fit (5 min) | 100 to 1000 nM | 329 nM | 100 to 1000 nM | ~841 nM | – | > 0.73 µM | – | – | – | – | –
OCc1ccc(-c2ccccc2)cc1N1CC[C@H](Oc2ccc(C(F)(F)F)cn2)C1 [Compound 1-180, (S)-(3-(3-(5-(trifluoromethyl)pyridin-2-yloxy)pyrrolidin-1-yl)biphenyl-4-yl)methanol] | – | no fit (5 min) no fit (30 min) | > 1000 nM | 1550 nM | > 1000 nM | 1860 nM | – | ~0.2 µM (≈ 0.0829 µg/mL) | no fit (5 min) no fit (30 min) | – | – | – | –
Cc1ccccc1-c1ccc(N2CC[C@H](Oc3ccc(C(F)(F)F)cn3)C2)c(CO)n1 [Compound 1-182, (S)-(6-o-tolyl-3-(3-(5-(trifluoromethyl)pyridin-2-yloxy)pyrrolidin-1-yl)pyridin-2-yl)methanol] | – | – | > 1000 nM | > 3200 nM | – | – | – | ~0.8 µM (≈ 0.344 µg/mL) | – | 19900 nM | 4600 nM | – | –
COc1ccccc1-c1ccc(N2CC[C@H](Oc3ccc(C(F)(F)F)cn3)C2)c(CO)n1 [Compound 1-183, (S)-(6-(2-methoxyphenyl)-3-(3-(5-(trifluoromethyl)pyridin-2-yloxy)pyrrolidin-1-yl)pyridin-2-yl)methanol] | – | no fit (5 min) no fit (30 min) | – | – | > 1000 nM | > 3200 nM | – | 0.84 µM (≈ 0.374 µg/mL) | no fit (5 min) no fit (30 min) | – | – | – | –
Cc1ccc(O[C@H]2CCN(c3ccc(-c4ccccc4CN(C)C)cc3CO)C2)nc1 [Compound 1-219, (S)-(2′-((dimethylamino)methyl)-4-(3-(5-methylpyridin-2-yloxy)pyrrolidin-1-yl)biphenyl-3-yl)methanol] | – | no fit (5 min) no fit (30 min) | – | – | – | – | – | > 20 µM | no fit (5 min) no fit (30 min) | – | – | > 1000 nM | > 3200 nM
OCc1ccc(Oc2ccccc2Cl)cc1N1CC[C@H](Oc2ccc(C(F)(F)F)cn2)C1 [Compound 1-224, (S)-(4-(2-chlorophenoxy)-2-(3-(5-(trifluoromethyl)pyridin-2-yloxy)pyrrolidin-1-yl)phenyl)methanol] | – | no fit (5 min) no fit (30 min) | 100 to 1000 nM | 161 nM | – | – | – | – | no fit (5 min) no fit (30 min) | – | – | – | –
OCc1ccc(-c2ccccc2Cl)cc1N1CC[C@H](Oc2ccc(C(F)(F)F)cn2)C1 [Compound 1-225, (S)-(2′-chloro-3-(3-(5-(trifluoromethyl)pyridin-2-yloxy)pyrrolidin-1-yl)biphenyl-4-yl)methanol] | – | no fit (5 min) no fit (30 min) | 100 to 1000 nM | 215 nM | – | – | – | – | no fit (5 min) no fit (30 min) | – | – | – | –
Cc1ccccc1Oc1ccc(N2CC[C@H](Oc3ccc(C(F)(F)F)cn3)C2)c(CO)n1 [Compound 1-226, (S)-(6-(o-tolyloxy)-3-(3-(5-(trifluoromethyl)pyridin-2-yloxy)pyrrolidin-1-yl)pyridin-2-yl)methanol] | – | no fit (5 min) no fit (30 min) | 100 to 1000 nM | ~158 nM | – | – | – | – | no fit (5 min) no fit (30 min) | – | – | – | –
CCc1ccccc1-c1ccc(CO)c(N2CC[C@H](Oc3ccc(C(F)(F)F)cn3)C2)c1 [Compound 1-227, (S)-(2′-ethyl-3-(3-(5-(trifluoromethyl)pyridin-2-yloxy)pyrrolidin-1-yl)biphenyl-4-yl)methanol] | – | no fit (5 min) no fit (30 min) | 100 to 1000 nM | 200 nM | – | – | – | – | no fit (5 min) no fit (30 min) | – | – | – | –
CCc1ccccc1Oc1ccc(CO)c(N2CC[C@H](Oc3ccc(C(F)(F)F)cn3)C2)c1 [Compound 1-228, (S)-(4-(2-ethylphenoxy)-2-(3-(5-(trifluoromethyl)pyridin-2-yloxy)pyrrolidin-1-yl)phenyl)methanol] | – | no fit (5 min) no fit (30 min) | 10 to 100 nM | 62.1 nM | – | – | – | – | no fit (5 min) no fit (30 min) | – | – | – | –
Cc1ccccc1Oc1ccc(CO)c(N2CC[C@H](Oc3ccc(C(F)(F)F)cn3)C2)c1 [Compound 1-230, (S)-(4-(o-tolyloxy)-2-(3-(5-(trifluoromethyl)pyridin-2-yloxy)pyrrolidin-1-yl)phenyl)methanol] | – | no fit (5 min) no fit (30 min) | 100 to 1000 nM | 198 nM | – | – | – | – | no fit (5 min) no fit (30 min) | – | – | – | –
OCc1ccc(-c2ccccc2Cl)cc1N1CC[C@H](Oc2ncccc2Cl)C1 [Compound 1-234, (S)-(2′-chloro-3-(3-(3-chloropyridin-2-yloxy)pyrrolidin-1-yl)biphenyl-4-yl)methanol] | – | no fit (5 min) no fit (30 min) | 100 to 1000 nM | 737 nM | – | – | – | – | no fit (5 min) no fit (30 min) | – | – | – | –
CCc1ccccc1Oc1ccc(N2CC[C@H](Oc3ncccc3Cl)C2)c(CCO)c1 [Compound 1-236, (S)-2-(2-(3-(3-chloropyridin-2-yloxy)pyrrolidin-1-yl)-5-(2-ethylphenoxy)phenyl)ethanol] | BLQ | no fit | < 10 nM | 8.27 nM | – | – | – | – | – | – | 5900 nM | – | –
OCCc1cc(Oc2ccccc2Cl)ccc1N1CC[C@H](Oc2ncccc2Cl)C1 [Compound 1-238, (S)-2-(5-(2-chlorophenoxy)-2-(3-(3-chloropyridin-2-yloxy)pyrrolidin-1-yl)phenyl)ethanol] | BLQ | – | 10 to 100 nM | ~51 nM | – | – | – | – | – | > 20000 nM | 16700 nM | – | –
Cc1ccccc1-c1ccc(CO)c(N2CC[C@H](Oc3ccc(C(F)(F)F)cn3)C2)c1 [Compound 1-239, (S)-(2′-methyl-3-(3-(5-(trifluoromethyl)pyridin-2-yloxy)pyrrolidin-1-yl)biphenyl-4-yl)methanol] | – | no fit (5 min) no fit (30 min) | 100 to 1000 nM | 607 nM | – | – | – | – | no fit (5 min) no fit (30 min) | – | – | – | –
Cc1ccccc1-c1ccc(CO)c(N2CC[C@H](Oc3ncccc3Cl)C2)c1 [Compound 1-240, (S)-(3-(3-(3-chloropyridin-2-yloxy)pyrrolidin-1-yl)-2′-methylbiphenyl-4-yl)methanol] | – | no fit (5 min) no fit (30 min) | 100 to 1000 nM | 934 nM | – | – | – | – | no fit (5 min) no fit (30 min) | – | – | – | –
